# Experimental data: US8455475B2 (Gruenenthal GmbH, priority 2009, dated 2013)
# Assays:
# [1] = molecular target: T1, rat B1R (bradykinin receptor 1) (Rattus norvegicus, UniProt P97583); test: FLIPR Ca2+ assay (Fluo-4) on CHO K1 cells stably transfected with the B1R gene of the rat (rB1R cells): % inhibition at 10 μM / IC50, agonist Des-Arg9-bradykinin; type: cell-based; conditions: CHO-K1, rat B1R
# T1 construct: expressed in transfected cells; host or cells: CHO K1 cells
# T1 sequence (P97583 1-337): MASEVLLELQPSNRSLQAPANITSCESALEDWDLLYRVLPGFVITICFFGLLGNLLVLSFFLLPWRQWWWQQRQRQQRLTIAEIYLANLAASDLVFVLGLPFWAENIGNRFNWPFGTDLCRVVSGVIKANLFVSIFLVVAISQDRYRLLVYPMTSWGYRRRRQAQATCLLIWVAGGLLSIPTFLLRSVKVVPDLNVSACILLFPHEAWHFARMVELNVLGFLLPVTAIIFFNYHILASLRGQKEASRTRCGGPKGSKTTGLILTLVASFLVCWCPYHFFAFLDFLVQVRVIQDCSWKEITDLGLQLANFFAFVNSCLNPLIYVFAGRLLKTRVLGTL
# Outline: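 Antagonism is measured as the drop in peak Fluo-4 Ca2+ signal when the EC80 agonist follows 10–20 min compound exposure. The single-point screen uses 10 μM; IC50 uses several concentrations. Values are given as % of maximal achievable inhibition.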
# [2] = molecular target: T2, human B1R (bradykinin receptor 1) (Homo sapiens, UniProt P46663); test: FLIPR Ca2+ assay (Fluo-4) on CHO K1 cells stably transfected with the human B1R gene (hB1R cells): % inhibition at 10 μM / IC50, agonist Lys-Des-Arg9-bradykinin; type: cell-based; conditions: CHO-K1, human B1R
# T2 construct: expressed in transfected cells; host or cells: CHO K1 cells
# T2 sequence (P46663 1-353): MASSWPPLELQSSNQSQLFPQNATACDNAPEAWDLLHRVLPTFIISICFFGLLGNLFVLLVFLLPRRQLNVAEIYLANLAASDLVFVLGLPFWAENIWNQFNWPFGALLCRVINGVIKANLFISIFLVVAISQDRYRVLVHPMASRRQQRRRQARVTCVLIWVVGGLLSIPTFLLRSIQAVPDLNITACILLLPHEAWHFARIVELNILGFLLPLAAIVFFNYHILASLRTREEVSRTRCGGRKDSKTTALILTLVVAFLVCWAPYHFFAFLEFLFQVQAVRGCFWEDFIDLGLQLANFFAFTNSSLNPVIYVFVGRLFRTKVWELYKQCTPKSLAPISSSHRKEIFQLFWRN
# Description: The agonistic or antagonistic action of substances can be quantified on the bradykinin receptor 1 (B1R) of the human and rat species with ectopically expressing cell lines (CHO K1 cells) and with the aid of a Ca^2+-sensitive dyestuff (Fluo-4) in a fluorescent imaging plate reader (FLIPR). The figure in % activation is based on the Ca^2+ signal after addition of Lys-Des-Arg^9-bradykinin (0.5 nM) or Des-Arg^9-bradykinin (100 nM). Antagonists lead to a suppression of the Ca^2+ inflow after addition of the agonist. % inhibition compared with the maximum achievable inhibition is stated.
# The agonistic or antagonistic action of substances can be determined on the bradykinin receptor 1 (B1R) of the human and rat species with the following assay. In accordance with this assay, the Ca^2+ inflow through the channel is quantified with the aid of a Ca^2+-sensitive dyestuff (type Fluo-4, Molecular Probes Europe BV, Leiden, Holland) in a fluorescent imaging plate reader (FLIPR, Molecular Devices, Sunnyvale, USA).
# Chinese hamster ovary cells (CHO K1 cells) transfected stably with the human B1R gene (hB1R cells) or the B1R gene of the rat (rB1R cells) are used. For functional studies, these cells are plated out on black 96-well plates with a clear base (BD Biosciences, Heidelberg, Germany or Greiner, Frickenhausen, Germany) in a density of 20,000-35,000 cells/well. The cells are left overnight at 37° C. and 5% CO2 in culture medium (hB1R cells: Nutrient Mixture Ham's F12, Gibco Invitrogen GmbH, Karlsruhe, Germany or DMEM, Sigma-Aldrich, Taufkirchen, Germany; rB1R cells: D-MEM/F12, Gibco Invitrogen GmbH, Karlsruhe, Germany) with 10 vol. % FBS (foetal bovine serum, Gibco Invitrogen GmbH, Karlsruhe, Germany or PAN Biotech GmbH, Aidenbach, Germany). On the following day, the cells are loaded for 60 min at 37° C. with 2.13 μM Fluo-4 (Molecular Probes Europe BV, Leiden Holland) in HBSS buffer (Hank's buffered saline solution, Gibco Invitrogen GmbH, Karlsruhe, Germany) with 2.5 mM probenecid (Sigma-Aldrich, Taufkirchen, Germany) and 10 mM HEPES (Sigma-Aldrich, Taufkirchen, Germany). The plates are then washed 2× with HBSS buffer, and HBSS buffer which additionally contains 0.1% BSA (bovine serum albumin; Sigma-Aldrich, Taufkirchen, Germany), 5.6 mM glucose and 0.05% gelatine (Merck KGaA, Darmstadt, Germany) is added. After a further incubation of 20 minutes at room temperature, the plates are inserted into the FLIPR for the Ca^2+ measurement. Alternatively, the plates are washed with buffer A (15 mM HEPES, 80 mM NaCl, 5 mM KCl, 1.2 mM CaCl2, 0.7 mM MgSO4, 2 g/l glucose, 2.5 mM probenecid), buffer A is added and the plates are loaded with 2.5 μM Fluo-4 and 0.025% Pluronic F127 (Sigma-Aldrich, Taufkirchen, Germany). Thereafter, the cells are washed 2× with buffer A and incubated for 30 minutes at room temperature with buffer A, which additionally contains 0.05% BSA and 0.05% gelatine, and thereafter inserted into the FLIPR for the Ca^2+ measurement. The Ca^2+-dependent fluorescence is measured here before and after addition of substances (λex=488 nm, λem=540 nm). Quantification is by measurement of the highest fluorescence intensity (FC, fluorescence counts) over time.
# The FLIPR protocol consists of 2 additions of substance. Test substances (10 μM) are first pipetted on to the cells and the Ca^2+ inflow is compared with the control (hB1R: Lys-Des-Arg^9-bradykinin>=50 nM; rB1R: Des-Arg^9-bradykinin 10 μM). This gives the result in % activation based on the Ca^2+ signal after addition of Lys-Des-Arg^9-bradykinin (>=50 nM) or Des-Arg^9-bradykinin (10 μM). After incubation for 10-20 minutes, Lys-Des-Arg^9-bradykinin (hB1R) or Des-Arg^9-bradykinin (rB1R) in the concentration of the EC80 is applied and the inflow of Ca^2+ is likewise determined. Antagonists lead to a suppression of the Ca^2+ inflow. % inhibition compared with the maximum achievable inhibition is calculated.
# For determination of the IC50 value, the substances are added in various concentrations. […]
inhibition at 10 µM [1] [%],inhibition at 10 µM [2] [%],Compound
90,-2,"Cc1nc[nH]c1CN1CCC2(CC1)CCN(C(=O)c1ccc3c(c1)C(NC(=O)c1ccccc1Cl)CC3)C2 (stereo not drawn) [IND_CC-553, 2-Chloro-N-[6-[8-[(5-methyl-3H-imidazol-4-yl)-methyl]-2,8-diazaspiro[4.5]decane-2-carbonyl]-2,3-dihydro-1H-inden-1-yl]-benzamide]"
104,100,"COc1ccc(S(=O)(=O)N[C@@H]2CCc3ccc(C(=O)N4CCC5(CCN(c6ccncc6)CC5)C4)cc32)c(C)c1 [Example H-147, 4-Methoxy-2-methyl-N-[(1R)-6-(8-pyridin-4-yl-3,8-diazaspiro[4.5]decane-3-carbonyl)-2,3-dihydro-1H-inden-1-yl]-benzenesulfonic acid amide]"
106,99,"O=C(N[C@@H]1CCOc2ccc(C(=O)N3CCC4(CC3)CCN(c3ccncc3)CC4)cc21)c1ccccc1Cl [Example H-58, 2-Chloro-N-[(4R)-6-(9-pyridin-4-yl-3,9-diazaspiro[5.5]undecane-3-carbonyl)-3,4-dihydro-2H-chromen-4-yl]-benzamide]"
88,79,"O=C(NC1CCc2ccc(C(=O)N3CCC4(CC3)CCN(c3ccncc3)C4)cc21)c1ccc(Cl)s1 (stereo not drawn) [Ind_CC-043, 5-chloro-N-[6-(2-pyridin-4-yl-2,8-diazaspiro[4.5]decane-8-carbonyl)-2,3-dihydro-1H-inden-1-yl]-thiophene-2-carboxylic acid amide]"
104,97,"Cc1cccc(C)c1C(=O)NC1CC(C)(C)c2ccc(C(=O)N3CCC4(CC3)CCN(c3ccncc3)CC4)cc21 (stereo not drawn) [IND_CC-309, N-[3,3-Dimethyl-6-(3-pyridin-4-yl-3,9-diazaspiro[5.5]undecane-9-carbonyl)-1,2-dihydro-inden-1-yl]-2,6-dimethyl-benzamide]"
103,49,"O=C(N[C@H]1CCCc2ccc(C(=O)N3CCC4(CC3)CCN(c3ccncc3)CC4)cc21)c1ccccc1Cl [Example H-10, 2-chloro-N-[(1S)-7-(9-pyridin-4-yl-3,9-diazaspiro[5.5]undecane-3-carbonyl)-1,2,3,4-tetrahydro-naphthalen-1-yl]-benzamide]"
103,100,"CC1(C)Cc2ccc(C(=O)N3CCC4(CC3)CCN(c3ccncc3)CC4)cc2C1NC(=O)c1c(Cl)cccc1C(F)(F)F (stereo not drawn) [IND_CC-206, 2-Chloro-N-[2,2-dimethyl-6-(9-pyridin-4-yl-3,9-diazaspiro[5.5]undecane-3-carbonyl)-1,3-dihydro-inden-1-yl]-6-(trifluoromethyl)-benzamide]"
100,100,"O=C(NCc1ccccc1Cl)NC1CCc2ccc(C(=O)N3CCC4(CC3)CCN(c3ccncc3)CC4)cc21 (stereo not drawn) [Ind_CC-012, 1-[(2-chlorophenyl)-methyl]-3-[6-(9-pyridin-4-yl-3,9-diazaspiro[5.5]undecane-3-carbonyl)-2,3-dihydro-1H-inden-1-yl]-urea]"
105,,"CN(C(=O)CC(C)(C)C)C1CCc2ccc(C(=O)N3CCC4(CC3)CCN(c3ccncc3)CC4)cc21 (stereo not drawn) [IND_CC-372, N,3,3-Trimethyl-N-[6-(9-pyridin-4-yl-3,9-diazaspiro[5.5]undecane-3-carbonyl)-2,3-dihydro-1H-inden-1-yl]-butyramide]"
104,,"O=C(NC1CCc2ccc(C(=O)N3CCC4(CC3)CCN(c3ccncc3)C4)cc21)c1c(F)cccc1F (stereo not drawn) [IND_CC-385, 2,6-Difluoro-N-[6-(2-pyridin-4-yl-2,8-diazaspiro[4.5]decane-8-carbonyl)-2,3-dihydro-1H-inden-1-yl]-benzamide]"
68,,"O=C(NC1CCc2ccc(C(=O)N3CCC4(CC3)CCN(c3ccncc3)CC4)cc21)c1cnccn1 (stereo not drawn) [IND_CC-397, N-[6-(9-Pyridin-4-yl-3,9-diazaspiro[5.5]undecane-3-carbonyl)-2,3-dihydro-1H-inden-1-yl]-pyrazine-2-carboxylic acid amide]"
97,,"CCCC(=O)N(C)C1CCc2ccc(C(=O)N3CCC4(CC3)CCN(c3ccncc3)CC4)cc21 (stereo not drawn) [IND_CC-410, N-Methyl-N-[6-(9-pyridin-4-yl-3,9-diazaspiro[5.5]undecane-3-carbonyl)-2,3-dihydro-1H-inden-1-yl]-butyramide]"
102,,"CN(C1CCc2ccc(C(=O)N3CCC4(CC3)CCN(c3ccncc3)CC4)cc21)S(=O)(=O)c1ccccc1Cl (stereo not drawn) [IND_CC-325, 2-Chloro-N-methyl-N-[6-(9-pyridin-4-yl-3,9-diazaspiro[5.5]undecane-3-carbonyl)-2,3-dihydro-1H-inden-1-yl]-benzenesulfonic acid amide]"
71,,"O=C(NC1CCc2ccc(C(=O)N3CCC4(CCN(Cc5cc(F)ccc5F)CC4)C3)cc21)c1sccc1Cl (stereo not drawn) [IND_CC-547, 3-Chloro-N-[6-[8-[(2,5-difluoro-phenyl)-methyl]-2,8-diazaspiro[4.5]decane-2-carbonyl]-2,3-dihydro-1H-inden-1-yl]-thiophene-2-carboxylic acid amide]"
103,,"CC1(C)Cc2ccc(C(=O)N3CCC4(CC3)CCN(c3ccncc3)CC4)cc2C1NS(=O)(=O)c1ccccc1Cl (stereo not drawn) [IND_CC-336, 2-Chloro-N-[2,2-dimethyl-6-(9-pyridin-4-yl-3,9-diazaspiro[5.5]undecane-3-carbonyl)-1,3-dihydro-inden-1-yl]-benzenesulfonic acid amide]"
91,,"CSc1ncccc1C(=O)N1CCC2(CCN(C(=O)c3ccc4c(c3)C(NC(=O)c3ccccc3Cl)CC4)CC2)CC1 (stereo not drawn) [IND_CC-595, 2-Chloro-N-[6-[9-(2-methylsulfanyl-pyridine-3-carbonyl)-3,9-diazaspiro[5.5]undecane-3-carbonyl]-2,3-dihydro-1H-inden-1-yl]-benzamide]"
